Source: paper PMC10828645 (Heliyon, 2024)
Like-named read-outs stand apart in the source and are kept apart here.

Key:
[1] = Ionized fraction at pH 7.4 calculated from pKa; conditions: for Ionized fraction fcation: pH 7.4, Eq. (5), from literature basic pKa; for Ionized fraction fanion: pH 7.4, Eq. (6), from literature acidic pKa
[2] = cited from earlier work
[3] = ref [1]; cited from earlier work
[4] = marketed drugs; ref [1],[7]; cited from earlier work
[5] = Equilibrium dialysis, unbound fraction in plasma; assay type: in vitro ADME, CD-1 mice; conditions: CD-1, mouse, pH 7.4
[6] = Equilibrium dialysis, unbound fraction in brain homogenate; assay type: in vitro ADME, CD-1 mice; conditions: CD-1, mouse, brain homogenate (10 % w/v), pH 7.4
[7] = assay type: in vivo, CD-1 mice; conditions: CD-1, mouse, brain and plasma, intraperitoneal
[8] = marketed drugs, external validation, ref [1],[7]

Row | SMILES | Ionized fraction fcation [1] | Kp,brain ([2]; mouse, in vivo) | Kp,uu,brain ([2]; mouse, in vivo) | fu,b [4] | Basic_pKa [3] | also measured
1 | O=C1CC2(CCCC2)CC(=O)N1CCCCN1CCN(c2ncccn2)CC1 [Buspirone] | 0.5573 | – | – | – | – | –
2 | NC(=O)N1c2ccccc2C=Cc2ccccc21 [Carbamazepine] | – | 0.76 | 0.27 | – | – | Ionized fraction fanion [1]: 0.0003; Acidic_pKa [3]: 10.9
3 | CCCC(C)(COC(N)=O)COC(=O)NC(C)C (stereo not shown) [Carisoprodol] | – | – | – | 0.202 | – | Kp,brain [2, 8]: 0.66; Kp,uu,brain [2, 8]: 0.34; Ionized fraction fanion [1]: 0.0003; Acidic_pKa [3]: 11.0
4 | CN(C)CCCN1c2ccccc2Sc2ccc(Cl)cc21 [Chlorpromazine] | 0.9901 | – | – | – | – | Kp,brain [2, 8]: 23.0; Kp,uu,brain [2, 8]: 0.65
5 | CN(C)CCCC1(c2ccc(F)cc2)OCc2cc(C#N)ccc21 (stereo not shown) [Citalopram] | 0.9937 | 5.10 | 0.68 | 0.031 | 9.6 | –
6 | CN1CCN(C2=Nc3cc(Cl)ccc3Nc3ccccc32)CC1 [Clozapine] | 0.3339 | – | – | 0.009 | – | Kp,brain [2, 8]: 4.10; Kp,uu,brain [2, 8]: 1.01
7 | CN(C)CCC=C1c2ccccc2C=Cc2ccccc21 [Cyclobenzaprine] | 0.9844 | 12.0 | 1.62 | 0.007 | 9.2 | –
8 | CNCCC(Oc1ccc(C(F)(F)F)cc1)c1ccccc1 (stereo not shown) [Fluoxetine] | 0.9980 | – | – | – | – | Kp,brain [2, 8]: 12.0; Kp,uu,brain [2, 8]: 0.89
9 | COCCCC/C(=N\OCCN)c1ccc(C(F)(F)F)cc1 [Fluvoxamine] | 0.9901 | – | – | – | – | –
10 | O=C(CCCN1CCC(O)(c2ccc(Cl)cc2)CC1)c1ccc(F)cc1 [Haloperidol] | 0.8882 | – | – | 0.007 | – | Kp,brain [2, 8]: 13.0; Kp,uu,brain [2, 8]: 1.06
11 | COc1ccc2c3c1O[C@H]1C(=O)CC[C@H]4[C@@H](C2)N(C)CC[C@]314 [Hydrocodone] | 0.9264 | 2.10 | 1.96 | 0.550 | 8.5 | –
12 | OCCOCCN1CCN(C(c2ccccc2)c2ccc(Cl)cc2)CC1 (stereo not shown) [Hydroxyzine] | 0.3339 | 7.70 | 1.51 | 0.010 | 7.1 | –
13 | Nc1nnc(-c2cccc(Cl)c2Cl)c(N)n1 [Lamotrigine] | – | 1.10 | 0.64 | 0.220 | – | –
14 | CCCC(C)(COC(N)=O)COC(N)=O [Meprobamate] | – | – | – | 0.760 | – | Kp,uu,brain [2, 8]: 0.42; Ionized fraction fanion [1]: 0.0001; Acidic_pKa [3]: 11.3
15 | COC(=O)C(c1ccccc1)C1CCCCN1 (stereo not shown) [Methylphenidate] | 0.9994 | 12.0 | 3.43 | 0.220 | 10.6 | –
16 | CCN(CC)CCNC(=O)c1cc(Cl)c(N)cc1OC [Metoclopramide] | 0.9937 | 1.20 | 0.52 | 0.310 | – | Ionized fraction fanion [1]: 0.0001
17 | Cc1ncc2n1-c1ccc(Cl)cc1C(c1ccccc1F)=NC2 [Midazolam] | – | – | – | 0.027 | – | Kp,uu,brain [2, 8]: 0.14

Row | SMILES | Ionized fraction fcation [1] | Kp,brain ([2]; mouse, in vivo) | Kp,uu,brain ([2]; mouse, in vivo) | fu,b [4] | Basic_pKa [3] | also measured
18 | CN1CC[C@]23c4c5ccc(O)c4O[C@H]2[C@@H](O)C=C[C@H]3[C@H]1C5 [Morphine] | 0.8882 | – | – | – | – | Ionized fraction fanion [1]: 0.0038
19 | CNCCC=C1c2ccccc2CCc2ccccc21 [Nortriptyline] | 0.9980 | 11.0 | 1.63 | 0.005 | 10.1 | –
20 | Fc1ccc([C@@H]2CCNC[C@H]2COc2ccc3c(c2)OCO3)cc1 [Paroxetine] | 0.9987 | 3.30 | 0.86 | 0.004 | – | –
21 | CCOc1ccc(NC(C)=O)cc1 [Phenacetin] | – | – | – | – | – | fraction unbound at 5 h, 1 μM [5]: 0.701; fraction unbound at 5 h, 1 μM [6]: 0.442; Kp uu at 2 h [7]: 0.55
22 | O=C1NC(=O)C(c2ccccc2)(c2ccccc2)N1 [Phenytoin] | – | – | – | – | – | Kp,brain [2, 8]: 0.63; Kp,uu,brain [2, 8]: 0.28; Ionized fraction fanion [1]: 0.1118; Acidic_pKa [3]: 8.30
23 | CCC(=O)O[C@](Cc1ccccc1)(c1ccccc1)[C@H](C)CN(C)C [Propoxyphene] | 0.9844 | 2.90 | 0.85 | 0.033 | – | –
24 | CC(C)NCC(O)COc1cccc2ccccc12 (stereo not shown) [Propranolol] | – | – | – | – | – | fraction unbound at 5 h, 1 μM [6]: 0.022; Kp uu at 2 h [7]: 3.08
25 | C=C[C@H]1C[N@@]2CC[C@H]1C[C@@H]2[C@@H](O)c1ccnc2ccc(OC)cc12 [Quinidine] | – | – | – | – | – | fraction unbound at 5 h, 1 μM [5]: 0.286; Kp uu at 2 h [7]: 0.05
26 | Cc1nc2n(c(=O)c1CCN1CCC(c3noc4cc(F)ccc34)CC1)CCCC2 [Risperidone] | 0.9091 | – | – | – | 8.4 | Kp,uu,brain [2, 8]: 0.26
27 | C#CCN(C)[C@H](C)Cc1ccccc1 [Selegiline] | 0.5573 | 3.70 | 1.30 | 0.056 | 7.5 | –
28 | CN[C@H]1CC[C@@H](c2ccc(Cl)c(Cl)c2)c2ccccc21 [Sertraline] | 0.9921 | – | – | – | 9.5 | –
29 | CCN1CCCC1CNC(=O)c1cc(S(N)(=O)=O)ccc1OC (stereo not shown) [Sulpiride] | 0.9693 | 0.08 | 0.06 | – | 8.9 | Ionized fraction fanion [1]: 0.0017; Acidic_pKa [3]: 10.2
30 | CCCC(C)C1(CC)C(=O)NC(=S)NC1=O (stereo not shown) [Thiopental] | – | – | – | 0.146 | – | Ionized fraction fanion [1]: 0.2847; Acidic_pKa [3]: 7.80
31 | O=c1n(CCCN2CCN(c3cccc(Cl)c3)CC2)nc2ccccn12 [Trazodone] | 0.3869 | – | 0.56 | 0.047 | 7.2 | Kp,brain [2, 8]: 0.61
32 | COc1ccc(C(CN(C)C)C2(O)CCCCC2)cc1 (stereo not shown) [Venlafaxine] | 0.9876 | – | – | 0.210 | 9.3 | Kp,brain [2, 8]: 4.20; Kp,uu,brain [2, 8]: 0.98
33 | CC(=O)CC(c1ccccc1)c1c(O)c2ccccc2oc1=O (stereo not shown) [Warfarin] | – | – | – | – | – | fraction unbound at 5 h, 1 μM [5]: 0.097; fraction unbound at 5 h, 1 μM [6]: 0.281; Kp uu at 2 h [7]: 0.19
34 | Cc1ccc(-c2nc3ccc(C)cn3c2CC(=O)N(C)C)cc1 [Zolpidem] | 0.2403 | 0.29 | 0.24 | 0.200 | 6.9 | –
